The record followed here is US9914736B2, “TrKA kinase inhibitors, compositions and methods thereof” (Merck Sharp & Dohme Corp., priority 2014, dated 2018).

The target in this test is human TrkA receptor (Homo sapiens (Human), UniProt P04629). Put plainly: DiscoverX PathHunter TrkA functional assay. Type of test: cell-based. Conditions: U2OS cells expressing human TrkA-ProLink, Shc1-EA and p75NTR; compound 1 h, then NGF at ~80% of maximal response for 3 h; luminescence.
human TrkA receptor, sequence (P04629 33-796): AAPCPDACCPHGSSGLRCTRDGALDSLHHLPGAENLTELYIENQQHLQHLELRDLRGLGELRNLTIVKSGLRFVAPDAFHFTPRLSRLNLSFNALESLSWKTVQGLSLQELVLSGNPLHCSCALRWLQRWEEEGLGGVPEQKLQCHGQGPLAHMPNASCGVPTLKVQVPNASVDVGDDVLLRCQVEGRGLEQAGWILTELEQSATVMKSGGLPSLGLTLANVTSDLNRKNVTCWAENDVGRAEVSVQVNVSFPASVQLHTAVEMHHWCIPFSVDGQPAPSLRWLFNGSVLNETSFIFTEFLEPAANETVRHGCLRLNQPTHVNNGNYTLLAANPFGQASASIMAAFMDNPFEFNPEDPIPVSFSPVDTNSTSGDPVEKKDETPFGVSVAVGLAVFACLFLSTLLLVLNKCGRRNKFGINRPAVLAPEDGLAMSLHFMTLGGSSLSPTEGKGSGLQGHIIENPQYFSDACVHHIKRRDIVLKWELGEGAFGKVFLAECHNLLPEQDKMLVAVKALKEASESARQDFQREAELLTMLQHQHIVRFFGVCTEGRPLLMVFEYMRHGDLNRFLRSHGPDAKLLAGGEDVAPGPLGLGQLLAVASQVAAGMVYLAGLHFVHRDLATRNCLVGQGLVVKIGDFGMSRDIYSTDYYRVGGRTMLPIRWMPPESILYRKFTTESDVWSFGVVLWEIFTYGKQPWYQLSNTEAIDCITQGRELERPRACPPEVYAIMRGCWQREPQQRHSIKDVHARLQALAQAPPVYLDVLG

Regarding `Cn1ccc(-c2cc(C(=O)Nc3c(-c4ccccc4)nc(C(N)=O)n3C)ccc2C(F)(F)F)n1` [Compound 50, 1-methyl-5-({[3-(1-methyl-1H-pyrazol-3-yl)-4-(trifluoromethyl)phenyl]carbonyl}amino)-4-phenyl-1H-imidazole-2-carboxamide], half-maximal inhibition (IC50) was put at 5.7 nM.

In turn, `Cc1csc(-c2cc(C(=O)Nc3cc(-c4ccccn4)nn3-c3cc(C)[nH]n3)ccc2C(F)(F)F)n1` [Compound 6, N-(5′-methyl-3-pyridin-2-yl-1′H-1,3′-bipyrazol-5-yl)-3-(4-methyl-1,3-thiazol-2-yl)-4-(trifluoromethyl)benzamide] displayed an IC50 of 1.7 nM.

For the molecule `Cc1cccnc1-c1cc(C(=O)Nc2cc(-c3ccncc3)nn2-c2ccc(F)cc2)ccc1C(F)(F)F` [Compound 31, N-[1-(4-fluorophenyl)-3-pyridin-4-yl-1H-pyrazol-5-yl]-3-(3-methylpyridin-2-yl)-4-(trifluoromethyl)benzamide], the concentration for half-maximal inhibition (IC50) is 860 nM.

In the case of `Cc1cc(-n2nc(C(=O)NCc3ccns3)cc2NC(=O)c2ccc(C(F)(F)F)c(-c3ccn(C)n3)c2)[nH]n1` [Compound 25, N-(isothiazol-5-ylmethyl)-5′-methyl-5-({[3-(1-methyl-1H-pyrazol-3-yl)-4-(trifluoromethyl)phenyl]carbonyl}amino)-2′H-1,3′-bipyrazole-3-carboxamide], the IC50 came out at 1.7 nM.

In turn, `O=C(Nc1cc(-c2ccc(=O)[nH]n2)nn1-c1ccccc1)c1ccc(C(F)(F)F)c(-c2ccn(CC(F)(F)F)n2)c1` [Compound 70, N-[3-(6-oxo-1,6-dihydropyridazin-3-yl)-1-phenyl-1H-pyrazol-5-yl]-3-[1-(2,2,2-trifluoroethyl)-1H-pyrazol-3-yl]-4-(trifluoromethyl)benzamide] showed an IC50 of 390 nM.

`Cc1cc(-n2nc(C(=O)NC3CN(C)C3)cc2NC(=O)c2ccc(C(F)(F)F)c(-c3ccn(C)n3)c2)[nH]n1` [Compound 27, 5′-methyl-N-(1-methylazetidin-3-yl)-5-({[3-(1-methyl-1H-pyrazol-3-yl)-4-(trifluoromethyl)phenyl]carbonyl}amino)-2′H-1,3′-bipyrazole-3-carboxamide]: half-maximal inhibition (IC50) required 10 nM.

Consider `Cc1csc(-c2cc(C(=O)Nc3cc(C)nn3-c3ccccc3)ccc2C(F)(F)F)n1` [Compound 3, N-(3-methyl-1-phenyl-1H-pyrazol-5-yl)-3-(4-methyl-1,3-thiazol-2-yl)-4-(trifluoromethyl)benzamide], for which the IC50 came out at 5.4 nM.

For the molecule `Cc1nc(-c2ccccc2)c(NC(=O)c2ccc(C(F)(F)F)cc2F)s1` [Compound 1, 2-fluoro-N-(2-methyl-4-phenyl-1,3-thiazol-5-yl)-4-(trifluoromethyl)benzamide], it took 780 nM to reach half-maximal inhibition (IC50).

Molecule `O=C(Nc1cc(Cc2n[nH]c(=O)s2)nn1-c1ccc(F)cc1)c1cc(-c2ncccn2)c(C(F)(F)F)cc1F` [Compound 89, 2-fluoro-N-(1-(4-fluorophenyl)-3-((5-oxo-4,5-dihydro-1,3,4-thiadiazol-2-yl)methyl)-1H-pyrazol-5-yl)-5-(pyrimidin-2-yl)-4-(trifluoromethyl)benzamide] returned an IC50 of 4.8 nM.

For `Cn1ccc(-c2cc(C(=O)Nc3cc(-c4ccccc4)nn3C)ccc2C(F)(F)F)n1` [Compound 20, N-(1-methyl-3-phenyl-1H-pyrazol-5-yl)-3-(1-methyl-1H-pyrazol-3-yl)-4-(trifluoromethyl)benzamide], it took 1400 nM to reach half-maximal inhibition (IC50).

In turn, `Cn1ccc(-c2cc(C(=O)Nc3cc(Cc4nnn(C)n4)nn3-c3ccccc3)c(Cl)cc2C(F)(F)F)n1` [Compound 58, 2-chloro-5-(1-methyl-1H-pyrazol-3-yl)-N-{3-[(2-methyl-2H-tetrazol-5-yl)methyl]-1-phenyl-1H-pyrazol-5-yl}-4-(trifluoromethyl)benzamide] returned an IC50 of 3.4 nM.

`Cn1ccc(-c2cc(C(=O)Nc3cc(Cn4ncnn4)nn3-c3ccccc3)ccc2C(F)(F)F)n1` [Compound 67, 3-(1-methyl-1H-pyrazol-3-yl)-N-[1-phenyl-3-(2H-tetrazol-2-ylmethyl)-1H-pyrazol-5-yl]-4-(trifluoromethyl)benzamide] had an IC50 of 3.7 nM.

As to `Cn1ccc(-c2cc(C(=O)Nc3cc(Cc4cnc(N)nc4)nn3-c3ccc(F)cc3)ccc2C(F)(F)F)n1` [Compound 91, N-(3-((2-aminopyrimidin-5-yl)methyl)-1-(4-fluorophenyl)-1H-pyrazol-5-yl)-3-(1-methyl-1H-pyrazol-3-yl)-4-(trifluoromethyl)benzamide], the IC50 was determined as 6.1 nM.

In turn, `O=C(Nc1cc(-c2ccc(CCO)cc2)nn1-c1ccc(F)cc1)c1cc(-c2ncccn2)c(C(F)(F)F)cc1F` [Compound 101, 2-fluoro-N-(1-(4-fluorophenyl)-3-(4-(2-hydroxyethyl)phenyl)-1H pyrazol-5-yl)-5-(pyrimidin-2-yl)-4-(trifluoromethyl)benzamide] had a 50% inhibitory concentration (IC50) of 3.4 nM.

With `CC(=O)n1cc(NC(=O)c2ccc(C(F)(F)F)c(-c3ccn(C)n3)c2)c(-c2ccccc2)n1` [Compound 33, N-(1-acetyl-3-phenyl-1H-pyrazol-4-yl)-3-(1-methyl-1H-pyrazol-3-yl)-4-(trifluoromethyl)benzamide], the IC50 was 18 nM.

`Cn1ccc(-c2cc(C(=O)Nc3cc(Cc4nnn(CCO)n4)nn3-c3ccc(F)cc3)ccc2C(F)(F)F)n1` [Compound 77, N-[1-(4-fluorophenyl)-3-{[2-(2-hydroxyethyl)-2H-tetrazol-5-yl]methyl}-1H-pyrazol-5-yl]-3-(1-methyl-1H-pyrazol-3-yl)-4-(trifluoromethyl)benzamide] came in with an IC50 of 14 nM.

`Cc1nc(-c2cc(C(=O)Nc3cc(-c4ccncc4)nn3-c3ccc(F)cc3)ccc2C(F)(F)F)no1` [Compound 29, N-[1-(4-fluorophenyl)-3-pyridin-4-yl-1H-pyrazol-5-yl]-3-(5-methyl-1,2,4-oxadiazol-3-yl)-4-(trifluoromethyl)benzamide]: the IC50 came out at 530 nM.

On to `Cc1cnn(-c2ccccc2)c1NC(=O)c1cc(-c2ccn(C)n2)c(C(F)(F)F)cc1Cl` [Compound 46, 2-chloro-N-(4-methyl-1-phenyl-1H-pyrazol-5-yl)-5-(1-methyl-1H-pyrazol-3-yl)-4-(trifluoromethyl)benzamide], for which the IC50 stood at 13 nM.

`Cc1cc(-n2nc(C(=O)NCc3cncnc3)cc2NC(=O)c2ccc(C(F)(F)F)c(-c3ccn(C)n3)c2)[nH]n1` [Compound 83, 5′-methyl-5-(3-(1-methyl-1H-pyrazol-3-yl)-4-(trifluoromethyl)benzamido)-N-(pyrimidin-5-ylmethyl)-2′H-[1,3′-bipyrazole]-3-carboxamide] showed a concentration for half-maximal inhibition (IC50) of 1.6 nM.

Consider `Cc1csc(-c2cc(C(=O)Nc3cc(-c4cnn(C)c4)nn3-c3cc(C)[nH]n3)ccc2C(F)(F)F)n1` [Compound 5, N-(1″,5-dimethyl-1H,1″H-3,1′:3′,4″-terpyrazol-5′-yl)-3-(4-methyl-1,3-thiazol-2-yl)-4-(trifluoromethyl)benzamide], for which 0.85 nM corresponded to half-maximal inhibition (IC50).

`O=C(Nc1cc(CO)nn1-c1ccc(F)cc1)c1cc(-c2ncccn2)c(C(F)(F)F)cc1F` [Compound 97, 2-fluoro-N-(1-(4-fluorophenyl)-3-(hydroxymethyl)-1H-pyrazol-5-yl)-5-(pyrimidin-2-yl)-4-(trifluoromethyl)benzamide]: inhibition was half-maximal at 14 nM (IC50).

In turn, `O=C(Nc1cn[nH]c1-c1ccccc1)c1cc(-c2cc[nH]n2)c(C(F)(F)F)cc1F` [Compound 62, 2-fluoro-N-(5-phenyl-1H-pyrazol-4-yl)-5-(1H-pyrazol-3-yl)-4-(trifluoromethyl)benzamide] yielded an IC50 of 85 nM.

For the molecule `Cn1ccc(-c2cc(C(=O)Nc3cc(-c4ccc(=O)[nH]n4)nn3-c3ccccc3)ccc2C(F)(F)F)n1` [Compound 11, 3-(1-methyl-1H-pyrazol-3-yl)-N-[3-(6-oxo-1,6-dihydropyridazin-3-yl)-1-phenyl-1H-pyrazol-5-yl]-4-(trifluoromethyl)benzamide], the IC50 was 5.5 nM.

Consider `Cn1ccc(-c2cc(C(=O)Nc3cc(-c4n[nH]c(=O)n4C)nn3-c3ccccc3)ccc2C(F)(F)F)n1` [Compound 16, N-[3-(4-methyl-5-oxo-4,5-dihydro-1H-1,2,4-triazol-3-yl)-1-phenyl-1H-pyrazol-5-yl]-3-(1-methyl-1H-pyrazol-3-yl)-4-(trifluoromethyl)benzamide], for which it took 46 nM to reach half-maximal inhibition (IC50).

Take `Cn1ccc(-c2cc(C(=O)Nc3cc(Cc4ccc[nH]c4=O)nn3-c3ccc(F)cc3)ccc2C(F)(F)F)n1` [Compound 98, N-(1-(4-fluorophenyl)-3-((2-oxo-1,2-dihydropyridin-3-yl)methyl)-1H-pyrazol-5-yl)-3-(1-methyl-1H-pyrazol-3-yl)-4-(trifluoromethyl)benzamide]: the IC50 amounted to 3.8 nM.

In turn, `Cn1ccc(-c2cc(C(=O)Nc3cc(Cc4nnnn4C)nn3-c3ccccc3)c(Cl)cc2C(F)(F)F)n1` [Compound 59, 2-chloro-5-(1-methyl-1H-pyrazol-3-yl)-N-{3-[(1-methyl-1H-tetrazol-5-yl)methyl]-1-phenyl-1H-pyrazol-5-yl}-4-(trifluoromethyl)benzamide] came in with an IC50 of 1.7 nM.

The molecule `Cn1ccc(-c2cc(C(=O)Nc3cc(Cc4ccc(=O)[nH]n4)nn3-c3ccc(F)cc3)c(F)cc2C(F)(F)F)n1` [Compound 105, 2-fluoro-N-(1-(4-fluorophenyl)-3-((6-oxo-1,6-dihydropyridazin-3-yl)methyl)-1H-pyrazol-5-yl)-5-(1-methyl-1H-pyrazol-3-yl)-4-(trifluoromethyl)benzamide] returned an IC50 of 0.98 nM.

Consider `Cn1ccc(-c2cc(C(=O)Nc3cc(Cc4nnnn4C)nn3-c3ccccc3)c(Cl)cc2C(F)(F)F)n1` [Compound 80, 2-chloro-5-(1-methyl-1H-pyrazol-3-yl)-N-(3-((1-methyl-1H-tetrazol-5-yl)methyl)-1-phenyl-1H-pyrazol-5-yl)-4-(trifluoromethyl)benzamide], for which half-maximal inhibition (IC50) required 0.78 nM.

A word on the IC50: it is the midpoint of a concentration-inhibition curve. A low value points to greater potency in that assay.
